{"source": "ChEMBL document CHEMBL1201862", "about": "“PubChem BioAssay data set” (2004)", "target": "Envelope glycoprotein gp160 (Human immunodeficiency virus 1, UniProt Q6QLK5)", "sequence (Q6QLK5 whole entry, the tested form may be a part)": "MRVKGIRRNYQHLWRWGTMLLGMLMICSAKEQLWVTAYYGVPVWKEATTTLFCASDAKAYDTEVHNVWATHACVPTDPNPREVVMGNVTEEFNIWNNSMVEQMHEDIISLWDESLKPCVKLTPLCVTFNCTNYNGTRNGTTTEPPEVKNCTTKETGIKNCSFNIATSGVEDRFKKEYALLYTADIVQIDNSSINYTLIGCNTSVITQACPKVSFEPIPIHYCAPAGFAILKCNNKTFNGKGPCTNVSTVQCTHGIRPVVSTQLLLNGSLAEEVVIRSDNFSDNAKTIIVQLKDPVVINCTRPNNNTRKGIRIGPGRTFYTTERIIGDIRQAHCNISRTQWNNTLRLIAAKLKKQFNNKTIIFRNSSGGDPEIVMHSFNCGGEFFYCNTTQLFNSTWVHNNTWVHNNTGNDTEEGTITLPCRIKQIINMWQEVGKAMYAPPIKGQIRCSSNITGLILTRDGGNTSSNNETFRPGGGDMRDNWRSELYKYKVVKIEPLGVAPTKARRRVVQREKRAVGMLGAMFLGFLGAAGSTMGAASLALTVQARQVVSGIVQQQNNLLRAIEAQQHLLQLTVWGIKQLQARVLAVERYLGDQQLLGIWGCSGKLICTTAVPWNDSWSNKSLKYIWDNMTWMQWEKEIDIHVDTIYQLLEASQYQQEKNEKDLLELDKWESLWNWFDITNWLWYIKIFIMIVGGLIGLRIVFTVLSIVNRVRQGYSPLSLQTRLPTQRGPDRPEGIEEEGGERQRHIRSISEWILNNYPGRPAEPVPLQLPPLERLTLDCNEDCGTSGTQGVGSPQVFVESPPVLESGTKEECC", "assay": "inhibitors of HIV fusion peptide binding, primary screen, biochemical, uHTS, fluorescence dequenching (AID 1986)", "note": "Active and inactive are the calls of the source. Rule as the data show it: actives have a measured IC50 and inactives only a lower limit."}
{"compound": "CN(C)S(=O)(=O)c1cccc(-c2nn(-c3ccccc3)cc2/C=C2\\SC(=S)NC2=O)c1", "values": [{"measurement": "IC50", "result": "11.8 µM (active)"}]}
{"compound": "COc1cc(C(c2c(C(=O)O)[nH]c3ccccc23)c2c(C(=O)O)[nH]c3ccccc23)ccc1OCc1ccccc1", "values": [{"measurement": "IC50", "result": "7.01 µM (active)"}]}
